{"source": "patent US5068064A", "about": "“N-substituted lauramides, their preparation and compositions in which they are present” (Sanofi, priority 1989, dated 1991)", "key": {"[1]": {"tested_on": "Staphylococcus aureus CIP 53154", "assay": "Minimum bactericidal concentration, first method (30 min contact), S. aureus", "assay_type": "cell-based", "conditions": "CIP53154, 0.5 h, contact time 30 minutes", "source_text": "(§1) In the two methods, a bacterial inoculum is brought into contact with different dilutions of the product for a determined period of time.\n(§2) When the contact period has ended, an aliquot of the mixture of bacterial suspension and product is taken and brought into contact with an agent for neutralizing the bacterial activity of the mixture, either in a solid medium or in a liquid medium. The bactericidal activity of the product, expressed either as a concentration or as a percentage of active principle, corresponds to an absence of bacterial growth.\n(§3) The first method makes it possible to define a minimum bactericidal concentration (MBC) or minimum fungicidal concentration (MFC), expressed in μg/ml. The contact time between product and bacterial suspension is 30 minutes. The neutralizer is included in agar.\n(§4) The CIP bacterial strains chosen for the study, which are available from the Institut Pasteur, are:\n(§5) 1. Staphylococcus aureus\n(§6) The strains are maintained on Tryptic Soy Agar® (TSA) marketed by Difco.\n(§7) After 24 hours of culture at 37° C., the microbial growth is harvested with the aid of glass beads and 10 ml of diluent containing 1 g of tryptone and 8.5 g of sodium chloride in 1000 ml of distilled water. The suspension formed is shaken and the percentage transmission of light at 620 nm is measured in a spectrophotometer:\n(§8) The bacterial inoculum corresponds to a 1:20 dilution of this bacterial suspension.\n(§9) Plates containing cupules receive different dilutions of the test product. These dilutions of the test product are brought into contact with the different bacterial suspensions using a multiple site inoculator. After a contact time of 30 minutes, aliquots are transferred with this inoculator to the surface of an agar medium (TSA) placed in Petri dishes containing an activity neutralizer, namely 20 g of lubrol W, 2.5 g of Tween 80, 2.5 g of sodium thiosulfate and 1% of egg yolk in 1000 ml of TSA (Difco). A control for the efficacy of the neutralizer is prepared for each test product by depositing an aliquot of the dilution of the test product on the surface of the culture medium. After drying, the corresponding inoculum is deposited in the same place. An inoculum control is prepared on agar medium with and without neutralizer. The results are read off after 48 hours of incubation at 37° C.\n(§10) They indicate the minimum bactericidal concentrations (MBC) for strains 1, 2, 3 and 4 and the minimum fungicidal concentrations (MFC) for strain 5."}, "[2]": {"tested_on": "Enterococcus faecium CIP 5855", "assay": "Minimum bactericidal concentration, first method (30 min contact), E. faecium", "assay_type": "cell-based", "conditions": "CIP5855, 0.5 h, contact time 30 minutes", "source_text": "as §1, §2, §3, §4, §6, §7, §8, §9, §10"}, "[3]": {"tested_on": "Escherichia coli CIP 54127", "assay": "Minimum bactericidal concentration, first method (30 min contact), E. coli", "assay_type": "cell-based", "conditions": "CIP54127, 0.5 h, contact time 30 minutes", "source_text": "as §1, §2, §3, §4\n(§11) 3. Escherichia coli CIP 54127\nas §6, §7, §8, §9, §10"}, "[4]": {"tested_on": "Pseudomonas aeruginosa CIP A22", "assay": "Minimum bactericidal concentration, first method (30 min contact), P. aeruginosa", "assay_type": "cell-based", "conditions": "CIPA22, 0.5 h, contact time 30 minutes", "source_text": "as §1, §2, §3, §4\n4. Psuedomonas aeruginosa\nas §6, §7, §8, §9, §10"}, "[5]": {"tested_on": "Candida albicans CIP 1180", "assay": "Minimum fungicidal concentration, first method (30 min contact), C. albicans", "assay_type": "cell-based", "conditions": "CIP1180, 0.5 h, contact time 30 minutes", "source_text": "as §1, §2, §3, §9\nThe antifungal activity of the products according to the invention was also determined using the method described above. A representative strain of yeast was selected for the study: Candida albicans CIP 1180 (strain 5).\nThis is maintained on Sabouraud's Dextrose Agar marketed by Difco. The technique is identical to that described for studying the antibacterial activity. After 48 hours of culture at 37° C., the microbial growth is harvested with the aid of glass beads and 5 ml of diluent containing 1 g of tryptone and 8.5 g of sodium chloride in 1000 ml of distilled water; a further 5 ml of the diluent are then added. This suspension gives a percentage transmission of light at 620 nm of 2 to 3% in a spectrophotometer.\nThe inoculum corresponds to a 1:10 dilution of this microbial suspension. A 1:100 dilution of this suspension, observed between slide and cover glass through a No. 40 microscope objective, must show 10 cells per field, which corresponds to 1,000,000 yeasts per ml.\nas §10"}, "[6]": {"tested_on": "Staphylococcus aureus CIP 53154", "assay": "Percentage of bactericidal active principle, second method (5 min contact), S. aureus", "assay_type": "cell-based", "conditions": "with proteins as interfering substances, destruction of 99.99%", "source_text": "as §1, §2\n(§12) The second method makes it possible to define a percentage of bactericidal or fungicidal active principle by means of a simplified and automated adaptation of Afnor standards NF T 72-150 and NF T 72-170. In this method, the bactericidal activity of the product is determined with and without interfering substances. It is based on assessing the destruction of 99.99% of the initial bacteria by the product in 5 minutes. The interfering substances are of the protein type and are chosen for the actual conditions of application of this type of product. The contact time between product and bacterial suspension is 5 minutes, the neutralization step is 10 minutes and subculture is effected in a liquid medium.\n(§13) The chosen bacterial strains are:\nas §5, §6\n(§14) The strains are harvested in a manner identical to the first method; these suspensions contain between 1.10^8 and 3.10^8 cells per milliliter. Appropriate dilutions make it possible to have a suspension containing 2 to 6.10^3 cells per milliliter.\n(§15) The experiment is performed in microtiter plates; it comprises two steps. The first step, called the preliminary test, checks that the product is indeed neutralized. In the test proper, the different dilutions of the product are brought into contact with 2 to 6.10^3 cells per milliliter of the bacterial suspension in the second row of the microtiter plate. After a contact time of 5 minutes, an aliquot is transferred to the third row containing the neutralizer adapted to the product and to the strain. After a contact time of 10 minutes, aliquots are transferred to the last 5 rows containing Tryptic Soy Broth® (TSB) from Difco.\n(§16) The interfering substances tested are a mixture of albumin and yeast extract. In the first row of the microplate, these proteins are brought into contact for 5 minutes with the different dilutions of the product. After this step, the same principle as above is applied: 5 minutes of contact with the germ, 10 minutes of contact with the neutralizer, transfer to TSB."}, "[7]": {"tested_on": "Enterococcus faecium CIP 5855", "assay": "Percentage of bactericidal active principle, second method (5 min contact), E. faecium", "assay_type": "cell-based", "conditions": "destruction of 99.99%", "source_text": "as §1, §2, §12, §13, §6, §14, §15, §16"}, "[8]": {"tested_on": "Escherichia coli CIP 54127", "assay": "Percentage of bactericidal active principle, second method (5 min contact), E. coli", "assay_type": "cell-based", "conditions": "destruction of 99.99%", "source_text": "as §1, §2, §12, §13, §11, §6, §14, §15, §16"}, "[9]": {"tested_on": "Pseudomonas aeruginosa CIP A22", "assay": "Percentage of bactericidal active principle, second method (5 min contact), P. aeruginosa", "assay_type": "cell-based", "conditions": "destruction of 99.99%", "source_text": "as §1, §2, §12, §13\n4. Pseudomonas aeruginosa\nas §6, §14, §15, §16"}, "[10]": {"tested_on": "Candida albicans CIP 1180", "assay": "Percentage of fungicidal active principle, second method (5 min contact), C. albicans", "assay_type": "cell-based", "source_text": "as §1, §2, §12, §15, §16\nThe antifungal activity of the products according to the invention was also determined with and without interfering substances using the method described above. The same strain was used as for the first technique, namely Candida albicans CIP 1180. It is harvested in an identical manner to that described in the first method."}, "[11]": {"tested_on": "Mycobacterium smegmatis CIP 7326", "assay": "Percentage of bactericidal active principle, second method (5 min contact), M. smegmatis", "assay_type": "cell-based", "conditions": "with proteins as interfering substances, destruction of 99.99%", "source_text": "as §1, §2, §12, §13\n5. Mycobacterium smegmatis\nas §6, §14, §15, §16"}, "[12]": {"tested_on": "S. aureus, E. faecium, E. coli, P. aeruginosa, C. albicans, M. smegmatis", "assay": "Second method, bactericidal and fungicidal activity over all strains (Table III)", "assay_type": "cell-based", "conditions": "contact time 5 minutes", "source_text": "as §1, §2\nas §12, with “The contact time between product and bacterial suspension is 5 minutes, the neutralization step is 10 minutes and subculture is effected in a liquid medium.” left out\nThe antifungal activity of the products according to the invention was also determined with and without interfering substances using the method described above. […]"}, "[13]": {"assay": "Product solubility", "conditions": "water"}, "[14]": {"conditions": "Simple: without interfering substances"}, "[15]": {"conditions": "with proteins as interfering substances"}}, "data": [{"smiles": "CCCCCCCCCCCC(=O)NCCN(C)C", "note": "[D1, reference compound]", "values": [{"measurement": "MBC", "setting": "[1]", "value": 50, "unit": "µg/mL"}, {"measurement": "MBC", "setting": "[2]", "value": 50, "unit": "µg/mL"}, {"measurement": "MBC", "setting": "[3]", "value": 50, "unit": "µg/mL"}, {"measurement": "MBC", "setting": "[4]", "value": 50, "unit": "µg/mL"}, {"measurement": "MFC", "setting": "[5]", "value": 200, "unit": "µg/mL"}, {"measurement": "Bactericidal activity, results in percentage of active principle, S. aureus", "setting": "[6]", "value": "0.5 percentage of active principle"}, {"measurement": "Bactericidal activity, results in percentage of active principle, E. faecium", "setting": "[7]; [14]", "value": "0.01 percentage of active principle"}, {"measurement": "Bactericidal activity, results in percentage of active principle, E. faecium", "setting": "[7]; [15]", "value": "0.1 percentage of active principle"}, {"measurement": "Bactericidal activity, results in percentage of active principle, E. coli", "setting": "[8]; [14]", "value": "0.05 percentage of active principle"}, {"measurement": "Bactericidal activity, results in percentage of active principle, E. coli", "setting": "[8]; [15]", "value": "0.1 percentage of active principle"}, {"measurement": "Bactericidal activity, results in percentage of active principle, P. aeruginosa", "setting": "[9]; [14]", "value": "0.05 percentage of active principle"}, {"measurement": "Bactericidal activity, results in percentage of active principle, P. aeruginosa", "setting": "[9]; [15]", "value": "0.5 percentage of active principle"}, {"measurement": "Fungicidal activity, results in percentage of active principle, C. albicans", "setting": "[10]; [14]", "value": "0.1 percentage of active principle"}, {"measurement": "Fungicidal activity, results in percentage of active principle, C. albicans", "setting": "[10]; [15]", "value": "0.5 percentage of active principle"}, {"measurement": "Bactericidal activity, results in percentage of active principle, M. smegmatis", "setting": "[11]", "value": "> 0.5 percentage of active principle"}, {"measurement": "Ranking of activities among the products", "setting": "[12]", "value": "the activities are the lowest"}, {"measurement": "solubility", "setting": "[13]", "value": 18, "unit": "mg/mL"}]}]}
